# How the values were obtained:
# Type in all cases: functional
# Conditions in all cases: read-out: ED50 (the source's name)
# [1] = test system: HT-29; assay: Cytotoxicity against human HT-29 cells
# [2] = test system: DU-145; assay: Cytotoxicity against human DU145 cells
# [3] = test system: K562; assay: Cytotoxicity against human K562 cells
# [4] = Cytotoxicity against human IGROV cells
smiles,measurement,setting,value
C/C1=C/C=C(\C(C)C)C(=O)[C@@H](O)[C@H](C)CCC(=O)[C@H](CO)CCC1,EC50,[1],14.5 nM
same,EC50,[2],82 nM
same,EC50,[3],62.7 nM
same,EC50,[4],90.3 nM

# Source: ChEMBL document CHEMBL1151258, “New cytotoxic cembranes from the sea pen Gyrophyllum sibogae” (2004)
